In patent US11433136B2, “Polyacetal polymers, conjugates, particles and uses thereof” (THE GENERAL HOSPITAL CORPORATION, priority 2015, dated 2022):

System: PAN02 tumors
Test: Orthotopic PAN02 pancreatic (PDAC) tumors in lean and obese mice
Assay type: in vivo, mice (C57BL/6)
Procedure: Diet started at six weeks of age, continued for ten weeks (C57BL/6 and FVB), at which time tumors were implanted, and then continued until the end of experiments. In the spontaneous tumor models, diets were administered until tumor collection. Mice genetically deficient for leptin (ob/ob) on a standard chow for seven weeks gained weight compared to age matched WT mice (n=8-10/group for C57Bl/6, FVB and ob/ob, 4-10/group for KPC, 7-21/group for iKRAS). Left bars represent mice fed a low-fat diet, right bars represent mice fed a high fat diet for all groups except C57/B6 on the far right of the graph, in which the right bar represents the ob/ob mice. […] PAN02 and AK4.4 syngeneic tumors were orthotopically implanted in C57BL/6 and FVB mice respectively at ten weeks of diet (lean diet, left bars; and obese diet or ob/ob mice, right bars); ob/ob mice were implanted with PAN02 tumors at seven weeks of age. Tumors were collected 21 days later. Obese animals presented with higher tumor weights than lean counterparts in all models (n=8-10/group). FIG. 7D is representative images of mesenteric peritoneal dissemination in lean and obese mice implanted with PAN02 tumors. Mesenteries collected at the same time as tumors in FIG. 7C. FIG. 7E is a graph showing the quantification of mesenteric peritoneal metastasis in the PAN02 model. FIG. 7F is a graph showing the quantification of retro-peritoneal metastasis in the AK4.4 model. Data are shown as mean±standard error of the mean (SEM). P values were determined by the Student t-test. *, P<0.05; **, P<0.01; ***, P<0.001.
FIG. 9A is representative pictures of CD31(+) vessels and lectin in PAN02 tumors. Scale bars: 200 μm. FIG. 9B is a graph showing the quantification of the total (CD31+) and lectin-positive (CD31/lectin+) vessel area in PAN02 tumors. Obese mice (right bars) presented with decreased perfusion (n=3-6 tumors/group) compared to lean mice (left bars). […] Obese mice presented with increased hypoxia in tumors. […] 5-FU quantified via high performance liquid chromatography (HPLC). […] PAN02 tumors were orthotopically implanted at ten weeks of diet, treatments were initiated at day seven post-implantation and tumors resected at day 19. […] Data are shown as mean±SEM. P values were determined by the Student t-test unless otherwise stated. *, P<0.05; **, P<0.01
Expression of genes associated with AT-1 pathway activation and fibrosis/desmoplasia is increased in PAN02 (FIG. 10A) and AK4.4 (FIG. 10B) tumors from obese mice (right bars) in comparison to lean mice (left bars). […] Data normalized to lean group. 3-4 samples per group pooled in one single PCR array fibrosis gene set plate. […] Of note, similar to αSMA, the changes of AT1, as well as other desmoplasia related markers, were relatively mild in the lean setting. […] Data are shown as mean±SEM with the exception of FIGS. 10A and 10B. P values were determined by the Student t-test unless otherwise stated. *, P<0.05; **, P<0.01, ***p<0.001.
Obesity promoted infiltration of myeloid Gr-1(+)F4/80(−) cell population in PAN02 tumors in obese mice. FIG. 11B is a quantification normalized by total viable cells (i) or total CD45 leucocytes (ii) (n=4-6 tumors/group). FIG. 11C is representative FACS scatter plots of CD45(+)CD11b(+)Ly6G(+) tumor associated neutrophils (TANs), CD8(+) cytotoxic lymphocytes and CD4(+)CD25(+) regulatory T cells in PAN02 tumors in lean and obese setting. […] Obese promoted an increase in TANs and a decrease in CD8 cells in PAN02 tumors. A strong tendency for increased Tregs was also observed. […] Scale bars: 1 mm (whole tumors) and 100 μm (caption). […] (n=4-6 tumors/group). For bar graphs in FIGS. 11A, 11B, 11D, and 11E, left bars represent lean mice, and right bars represent obese mice. For the bar graph in FIG. 11J, left bars represent obese mice, and right bars represent obese mice with TAN depletion. Data are shown as mean±SEM. […]

delivery of chemotherapy to tumors, 5-FU quantified via HPLC (obese vs lean mice)	chemotherapy delivery to tumors (obese but not lean mice)	SMILES	response to chemotherapy (tumor growth) (obese vs lean, treatment from day 7, tumors resected day 19)	response to chemotherapy with AT1 blockade (losartan with 5-FU, lean and obese)	tumor αSMA protein expression (obese and lean)	tumor perfusion (obese but not lean mice)	cytokine expression in tumors (multiplex protein) (obese mice)
decreased delivery		O=c1[nH]cc(F)c(=O)[nH]1 [Example 5-FU, 5-fluorouracil]	less effective in preventing PAN02 tumor growth in obese animals than in lean				
	increase chemotherapy delivery	CCCCc1nc(Cl)c(CO)n1Cc1ccc(-c2ccccc2-c2nn[nH]n2)cc1 [losartan]		improved response to chemotherapy in obese, but not in lean animals	tendency for reduced tumor αSMA protein expression in obese but not lean setting	tended to improve perfusion	reduced the expression of multiple cytokines including IL-1
